Experimental data reported in ChEMBL document CHEMBL1201862, “PubChem BioAssay data set” (2004).
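Results reflect a 48-hour exposure of cells in 96-well plates to compound at five concentrations. Here, GI50 denotes the concentration required for 50% inhibition of growth.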 The source made the active and inactive calls. Rule as the data show it: active = GI50 up to about 1.1 µM and inactive = higher.

Legend:
Assay in all cases: NCI anticancer screen, dose series, 48 h
786-0 = system: 786-0
A549 = system: A549
BT-549 = system: BT-549
COLO 205 = system: COLO 205
EKVX = system: EKVX
HT-29 = system: HT-29
M14 = system: M14
MCF7 = system: MCF7
MOLT-4 = system: MOLT-4
NCI-H23 = system: NCI-H23
NCI-H460 = system: NCI-H460
NCI/ADR-RES = system: NCI/ADR-RES
SF-268 = system: SF-268
SN12C = system: SN12C
T47D = system: T47D
U-251 = system: U-251
HL-60 = system: HL-60
SK-MEL-5 = system: SK-MEL-5
NCI-H522 = system: NCI-H522

| Structure (SMILES) | GI50 (786-0) | GI50 (A549) | GI50 (BT-549) | GI50 (COLO 205) | GI50 (EKVX) | GI50 (HT-29) | GI50 (M14) | GI50 (MCF7) | GI50 (MOLT-4) | GI50 (NCI-H23) | GI50 (NCI-H460) | GI50 (NCI/ADR-RES) | GI50 (SF-268) | GI50 (SN12C) | GI50 (T47D) | GI50 (U-251) | GI50 (HL-60) | GI50 (SK-MEL-5) | GI50 (NCI-H522) |
| --- | --- | --- | --- | --- | --- | --- | --- | --- | --- | --- | --- | --- | --- | --- | --- | --- | --- | --- | --- |
| CC(C)(C)OC/C=C(\Br)CO | > 100 µM (inactive) | > 100 µM (inactive) | > 100 µM (inactive) | > 100 µM (inactive) | > 100 µM (inactive) | > 100 µM (inactive) | > 100 µM (inactive) | > 100 µM (inactive) | > 100 µM (inactive) | > 100 µM (inactive) | > 100 µM (inactive) | > 100 µM (inactive) | > 100 µM (inactive) | > 100 µM (inactive) | > 100 µM (inactive) | > 100 µM (inactive) | – | – | – |
| NC(Cc1ccc2nc3c4ccccc4c(=O)cc-3oc2c1)C(=O)O (stereo not given) | > 100 µM (inactive) | 44.2 µM (inactive) | > 100 µM (inactive) | 20.9 µM (inactive) | > 100 µM (inactive) | 71.3 µM (inactive) | 25.3 µM (inactive) | 18.4 µM (inactive) | – | 17.6 µM (inactive) | > 100 µM (inactive) | > 100 µM (inactive) | > 100 µM (inactive) | > 100 µM (inactive) | > 100 µM (inactive) | > 100 µM (inactive) | > 100 µM (inactive) | 18 µM (inactive) | – |
| CCOC(=O)c1cc(NC(=O)N(CCC#N)CCN(C(=O)N[C@@H](Cc2ccccc2)C(=O)N[C@@H](CC(C)C)C(=O)NC)c2ccccc2)ccc1OC | 45.3 µM (inactive) | > 100 µM (inactive) | 30.9 µM (inactive) | > 100 µM (inactive) | 63.1 µM (inactive) | – | 99.5 µM (inactive) | 58.6 µM (inactive) | 23.4 µM (inactive) | 37.3 µM (inactive) | – | > 100 µM (inactive) | 48.5 µM (inactive) | 33.7 µM (inactive) | 28.1 µM (inactive) | > 10 µM (inactive) | – | 42.3 µM (inactive) | – |
| C=C(Cl)C(=C)CCC(Cl)C(C)(C)Cl (stereo not given) | > 100 µM (inactive) | > 100 µM (inactive) | > 100 µM (inactive) | > 100 µM (inactive) | > 100 µM (inactive) | > 100 µM (inactive) | > 100 µM (inactive) | > 100 µM (inactive) | > 100 µM (inactive) | > 100 µM (inactive) | > 100 µM (inactive) | > 100 µM (inactive) | > 100 µM (inactive) | > 100 µM (inactive) | – | > 100 µM (inactive) | > 100 µM (inactive) | > 100 µM (inactive) | > 100 µM (inactive) |
| COc1cc(OC)cc(-c2nc(O)c3ccccc3n2)c1 | 25.4 µM (inactive) | > 100 µM (inactive) | > 100 µM (inactive) | > 100 µM (inactive) | > 100 µM (inactive) | > 100 µM (inactive) | > 100 µM (inactive) | – | > 100 µM (inactive) | > 100 µM (inactive) | 28.3 µM (inactive) | 40.7 µM (inactive) | 63.2 µM (inactive) | > 100 µM (inactive) | > 100 µM (inactive) | 39.3 µM (inactive) | > 100 µM (inactive) | > 100 µM (inactive) | – |
| O=c1cnc2cc3ccccc3cc2[nH]1 | > 100 µM (inactive) | > 100 µM (inactive) | > 100 µM (inactive) | > 100 µM (inactive) | 1.57 µM (inactive) | > 100 µM (inactive) | > 100 µM (inactive) | > 100 µM (inactive) | > 100 µM (inactive) | > 100 µM (inactive) | > 100 µM (inactive) | > 100 µM (inactive) | > 100 µM (inactive) | > 100 µM (inactive) | – | > 100 µM (inactive) | > 100 µM (inactive) | > 100 µM (inactive) | > 100 µM (inactive) |
| COc1ccccc1/C(=N\OCCC(=O)O)c1cccs1 | > 100 µM (inactive) | > 100 µM (inactive) | > 100 µM (inactive) | > 100 µM (inactive) | > 100 µM (inactive) | > 100 µM (inactive) | – | > 100 µM (inactive) | > 100 µM (inactive) | > 100 µM (inactive) | > 100 µM (inactive) | > 100 µM (inactive) | > 100 µM (inactive) | > 100 µM (inactive) | > 100 µM (inactive) | > 100 µM (inactive) | > 100 µM (inactive) | > 100 µM (inactive) | – |
| NC(=O)N/N=C1/c2ccccc2-n2nccc21 | 76.6 µM (inactive) | 78.3 µM (inactive) | – | 67.1 µM (inactive) | > 100 µM (inactive) | 76.4 µM (inactive) | 71.9 µM (inactive) | 21.5 µM (inactive) | 47.1 µM (inactive) | > 100 µM (inactive) | 45.1 µM (inactive) | > 100 µM (inactive) | 87.1 µM (inactive) | 89.9 µM (inactive) | 27.4 µM (inactive) | > 100 µM (inactive) | 8.59 µM (inactive) | 82.8 µM (inactive) | > 100 µM (inactive) |
| COc1ccccc1-n1cnc2c1=NC(C)(C)NC=2C(N)=O | > 100 µM (inactive) | > 100 µM (inactive) | – | > 100 µM (inactive) | > 100 µM (inactive) | > 100 µM (inactive) | > 100 µM (inactive) | > 100 µM (inactive) | – | > 100 µM (inactive) | > 100 µM (inactive) | > 100 µM (inactive) | > 100 µM (inactive) | > 100 µM (inactive) | > 100 µM (inactive) | > 100 µM (inactive) | > 100 µM (inactive) | > 100 µM (inactive) | > 100 µM (inactive) |
| CC(=O)NC1C(CO)O[C@@H]2OC(C)(C)O[C@H]12 (stereo not given in full) | > 100 µM (inactive) | > 100 µM (inactive) | > 100 µM (inactive) | – | > 100 µM (inactive) | > 100 µM (inactive) | > 100 µM (inactive) | > 100 µM (inactive) | > 100 µM (inactive) | > 100 µM (inactive) | > 100 µM (inactive) | > 100 µM (inactive) | > 100 µM (inactive) | > 100 µM (inactive) | – | > 100 µM (inactive) | > 100 µM (inactive) | – | > 100 µM (inactive) |
| Clc1ccc(NCNC2Nc3ccccc3N2)cc1Cl | 66.8 µM (inactive) | 56.9 µM (inactive) | – | 35.8 µM (inactive) | 63.7 µM (inactive) | 13.7 µM (inactive) | 83.4 µM (inactive) | 0.247 µM (active) | 39.2 µM (inactive) | > 100 µM (inactive) | 24.2 µM (inactive) | 83.4 µM (inactive) | 28.4 µM (inactive) | 22.6 µM (inactive) | 12.6 µM (inactive) | 52.5 µM (inactive) | 41.3 µM (inactive) | 17.1 µM (inactive) | 22.4 µM (inactive) |
| CC(C)Cc1cnc(CC(C)C)c(=O)[nH]1 | > 100 µM (inactive) | > 100 µM (inactive) | > 100 µM (inactive) | > 100 µM (inactive) | > 100 µM (inactive) | > 100 µM (inactive) | > 100 µM (inactive) | > 100 µM (inactive) | > 100 µM (inactive) | > 100 µM (inactive) | > 100 µM (inactive) | – | > 100 µM (inactive) | > 100 µM (inactive) | > 100 µM (inactive) | > 100 µM (inactive) | – | > 100 µM (inactive) | – |
| C=C1C(=O)O[C@H]2C1C[C@H](O)/C(C)=C/CC[C@@]1(C)O[C@H]21 (stereo not given in full) | 16.9 µM (inactive) | > 100 µM (inactive) | – | 0.782 µM (active) | 19 µM (inactive) | 23.3 µM (inactive) | 10.4 µM (inactive) | 13.2 µM (inactive) | 2.59 µM (inactive) | 19 µM (inactive) | > 10 µM (inactive) | 14.6 µM (inactive) | 29.4 µM (inactive) | 18.2 µM (inactive) | – | > 100 µM (inactive) | – | 10.7 µM (inactive) | 1.69 µM (inactive) |
| C[n+]1c2ccc(Cl)cc2nc2cc(-c3ccccc3)ccc21 | 35.3 µM (inactive) | 4.81 µM (inactive) | 11.1 µM (inactive) | 3.58 µM (inactive) | 10.8 µM (inactive) | 2.9 µM (inactive) | 4.65 µM (inactive) | 1.32 µM (inactive) | 1.61 µM (inactive) | 5.41 µM (inactive) | 14.9 µM (inactive) | 33.2 µM (inactive) | 14.7 µM (inactive) | 4.24 µM (inactive) | – | 5.21 µM (inactive) | 3.06 µM (inactive) | 6.68 µM (inactive) | 16 µM (inactive) |
| Cn1c2c(c3ccccc31)CC(=O)N1CCCCC1C21OCCO1 (stereo not given) | > 100 µM (inactive) | > 100 µM (inactive) | > 100 µM (inactive) | > 100 µM (inactive) | > 100 µM (inactive) | > 100 µM (inactive) | > 100 µM (inactive) | > 100 µM (inactive) | > 100 µM (inactive) | > 100 µM (inactive) | > 100 µM (inactive) | > 100 µM (inactive) | > 100 µM (inactive) | > 100 µM (inactive) | > 100 µM (inactive) | > 100 µM (inactive) | – | > 100 µM (inactive) | – |
| CCN(CC)C(=O)C1=C(C)NC(C)=C(C(=O)N(CC)CC)C1 | > 100 µM (inactive) | > 100 µM (inactive) | – | > 100 µM (inactive) | > 100 µM (inactive) | – | > 100 µM (inactive) | > 100 µM (inactive) | > 100 µM (inactive) | > 100 µM (inactive) | > 100 µM (inactive) | – | 53 µM (inactive) | > 100 µM (inactive) | 58.1 µM (inactive) | > 100 µM (inactive) | > 100 µM (inactive) | > 100 µM (inactive) | > 100 µM (inactive) |
